According to patent US5086045A, “Antitumor antibiotic” (Bristol-Myers Squibb Company, priority 1990, dated 1992):
“Also recorded” adds a separate entry of the source.

What was measured:
P388 leukemia [1] = test: In vivo antitumor activity, P388 leukemia implanted ip, drug ip; parameters: species or system mouse
Protocol: (§1) The in vivo antitumor activity of BMY-41339 was determined in the standard P388 mouse leukemia model. A summary of the experiments performed using BMY-41339 is provided below.
(§2) DBA/2 and (Balb/c × DBA/2)F1 (CDF1) hybrid mice were purchased from Charles River Breeding Co. (Wilmington, MA). They were provided food and water ad libitum.
(§3) The P388 murine ascites leukemia was maintained by weekly in vivo passage in DBA/2 mice.
(§4) Esperamicin A1 and BMY-41339 were dissolved in ethanol. Further dilutions were made with 0.9% NaCl (saline) until the ethanol concentration (v/v) was 10%. All administrations were made, therefore, in a 10% ethanol in saline vehicle. For ip injections, the concentration of compound was adjusted according to the average initial body weight of each group of mice to be injected such that the desired dose would be contained in a 0.5 ml injection volume. The same procedure was used for iv compound administration except the injection volume was 0.2 ml.
(§5) Antitumor experiments were initiated by implanting […] P388 leukemia cells either ip or iv into CDF1 mice. BMY-41339 and esperamicin A1 (included as a positive reference compound), were injected either ip in mice implanted ip with P388, or iv in mice implanted iv with P388 on Day 2 post-implant only Eight different dose levels of BMY-41339, at two-fold increments, were evaluated in each of the two experiments performed.
(§6) A % T/C value of ≥ 125 was considered indicative of activity in these models.

P388 leukemia [2] = test: In vivo antitumor activity, P388 leukemia implanted iv, drug iv; parameters: species or system mouse;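 as to % T/C: median survival time of treated over control mice times 100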;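 as to T/C: median survival time of treated over control mice times 100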
Protocol: as §1, §2, §3, §4, §5, §6

a variety of bacteria = test: Antimicrobial activity, serial two-fold agar dilution, overall; format: cell-based
Protocol: Antimicrobial activity of BMY-41339 was determined for a variety of bacteria by the serial two-fold agar dilution method.

[3] = Exp. 8102, iv, 0.025 mg/kg/dose
[4] = Exp. 8102, iv, same doses up to 3.2 μg/kg
[5] = Exp. 8109, iv, 0.025 mg/kg/dose

C=C(OC)C(=O)Nc1cc(OC)c(OC)cc1C(=O)OC1CC(OC2C(=O)C(NC(=O)OC)=C3C(=CCSSSSC)C2(O)C#CC=CC#CC3OC2OC(C)C(NOC3CC(O)C(SC)C(C)O3)C(O)C2OC2CC(OC)C(NC(C)C)CO2)OC(C)C1O (stereo not drawn) [BMY-41339]
% T/C (P388 leukemia [1]; Exp. 8109, ip, 1.6 mg/kg/dose): 145% | Avg. wt. change on day 6 (P388 leukemia [1]; Exp. 8109, ip, 1.6 mg/kg/dose): -0.1 grams | Survivors on Day 5 (P388 leukemia [1]; Exp. 8109, ip, 1.6 mg/kg/dose): 6/6 | % T/C (P388 leukemia [1]; Exp. 8109, ip, 3.2 mg/kg/dose): 140% | Avg. wt. change on day 6 (P388 leukemia [1]; Exp. 8109, ip, 3.2 mg/kg/dose): 0.7 grams | Survivors on Day 5 (P388 leukemia [1]; Exp. 8109, ip, 3.2 mg/kg/dose): 6/6 | increases in lifespan (P388 leukemia [1]; Exp. 8109, ip, 0.5 -32 μg/kg): active increases | activity against P388 leukemia (P388 leukemia [1]; conclusion, confirmed experimental results): active against P388 leukemia | % T/C (P388 leukemia [2]; [3]): 100% | Avg. wt. change on day 6 (P388 leukemia [2]; [3]): 0.4 grams | Survivors on Day 5 (P388 leukemia [2]; [3]): 6/6 | % T/C (P388 leukemia [2]; Exp. 8102, iv, 0.05 mg/kg/dose): 100% | Avg. wt. change on day 6 (P388 leukemia [2]; Exp. 8102, iv, 0.05 mg/kg/dose): 0.1 grams | Survivors on Day 5 (P388 leukemia [2]; Exp. 8102, iv, 0.05 mg/kg/dose): 6/6 | % T/C (P388 leukemia [2]; Exp. 8102, iv, 0.1 mg/kg/dose): 106% | Avg. wt. change on day 6 (P388 leukemia [2]; Exp. 8102, iv, 0.1 mg/kg/dose): 0.4 grams | Survivors on Day 5 (P388 leukemia [2]; Exp. 8102, iv, 0.1 mg/kg/dose): 6/6 | % T/C (P388 leukemia [2]; Exp. 8102, iv, 0.2 mg/kg/dose): 100% | Avg. wt. change on day 6 (P388 leukemia [2]; Exp. 8102, iv, 0.2 mg/kg/dose): -0.3 grams | Survivors on Day 5 (P388 leukemia [2]; Exp. 8102, iv, 0.2 mg/kg/dose): 6/6 | % T/C (P388 leukemia [2]; Exp. 8102, iv, 0.4 mg/kg/dose): 100% | Avg. wt. change on day 6 (P388 leukemia [2]; Exp. 8102, iv, 0.4 mg/kg/dose): -0.4 grams | Survivors on Day 5 (P388 leukemia [2]; Exp. 8102, iv, 0.4 mg/kg/dose): 6/6 | % T/C (P388 leukemia [2]; Exp. 8102, iv, 0.8 mg/kg/dose): 100% | Avg. wt. change on day 6 (P388 leukemia [2]; Exp. 8102, iv, 0.8 mg/kg/dose): -0.3 grams | Survivors on Day 5 (P388 leukemia [2]; Exp. 8102, iv, 0.8 mg/kg/dose): 6/6 | % T/C (P388 leukemia [2]; Exp. 8102, iv, 1.6 mg/kg/dose): 100% | Avg. wt. change on day 6 (P388 leukemia [2]; Exp. 8102, iv, 1.6 mg/kg/dose): -0.1 grams | Survivors on Day 5 (P388 leukemia [2]; Exp. 8102, iv, 1.6 mg/kg/dose): 6/6 | % T/C (P388 leukemia [2]; Exp. 8102, iv, 3.2 mg/kg/dose): 113% | Avg. wt. change on day 6 (P388 leukemia [2]; Exp. 8102, iv, 3.2 mg/kg/dose): -0.2 grams | Survivors on Day 5 (P388 leukemia [2]; Exp. 8102, iv, 3.2 mg/kg/dose): 6/6 | effectiveness versus iv-implanted leukemia (P388 leukemia [2]; [4]): not effective | maximum tolerated dose reached (P388 leukemia [2]; [4]): no indication of having reached a maximum tolerated dose | T/C (P388 leukemia [2]; Exp. 8109, iv, 16 μg/kg): 139% | % T/C (P388 leukemia [2]; [5]): 100% | Avg. wt. change on day 6 (P388 leukemia [2]; [5]): 0.4 grams | Survivors on Day 5 (P388 leukemia [2]; [5]): 6/6 | T/C (P388 leukemia [2]; Exp. 8109, iv, 32 μg/kg): 156% | % T/C (P388 leukemia [2]; Exp. 8109, iv, 0.05 mg/kg/dose): 100% | Avg. wt. change on day 6 (P388 leukemia [2]; Exp. 8109, iv, 0.05 mg/kg/dose): 0.1 grams | Survivors on Day 5 (P388 leukemia [2]; Exp. 8109, iv, 0.05 mg/kg/dose): 6/6 | % T/C (P388 leukemia [2]; Exp. 8109, iv, 0.1 mg/kg/dose): 106% | Avg. wt. change on day 6 (P388 leukemia [2]; Exp. 8109, iv, 0.1 mg/kg/dose): 0.4 grams | Survivors on Day 5 (P388 leukemia [2]; Exp. 8109, iv, 0.1 mg/kg/dose): 6/6 | % T/C (P388 leukemia [2]; Exp. 8109, iv, 0.2 mg/kg/dose): 100% | Avg. wt. change on day 6 (P388 leukemia [2]; Exp. 8109, iv, 0.2 mg/kg/dose): -0.3 grams | Survivors on Day 5 (P388 leukemia [2]; Exp. 8109, iv, 0.2 mg/kg/dose): 6/6 | % T/C (P388 leukemia [2]; Exp. 8109, iv, 0.4 mg/kg/dose): 100% | Avg. wt. change on day 6 (P388 leukemia [2]; Exp. 8109, iv, 0.4 mg/kg/dose): -0.4 grams | Survivors on Day 5 (P388 leukemia [2]; Exp. 8109, iv, 0.4 mg/kg/dose): 6/6 | % T/C (P388 leukemia [2]; Exp. 8109, iv, 0.8 mg/kg/dose): 100% | Avg. wt. change on day 6 (P388 leukemia [2]; Exp. 8109, iv, 0.8 mg/kg/dose): -0.3 grams | Survivors on Day 5 (P388 leukemia [2]; Exp. 8109, iv, 0.8 mg/kg/dose): 6/6 | % T/C (P388 leukemia [2]; Exp. 8109, iv, 1.6 mg/kg/dose): 100% | Avg. wt. change on day 6 (P388 leukemia [2]; Exp. 8109, iv, 1.6 mg/kg/dose): -0.1 grams | Survivors on Day 5 (P388 leukemia [2]; Exp. 8109, iv, 1.6 mg/kg/dose): 6/6 | % T/C (P388 leukemia [2]; Exp. 8109, iv, 3.2 mg/kg/dose): 113% | Avg. wt. change on day 6 (P388 leukemia [2]; Exp. 8109, iv, 3.2 mg/kg/dose): -0.2 grams | Survivors on Day 5 (P388 leukemia [2]; Exp. 8109, iv, 3.2 mg/kg/dose): 6/6 | increases in lifespan (P388 leukemia [2]; Exp. 8109, iv, at two dose levels evaluated): active increases | activity against disseminated iv implanted P388 leukemia (P388 leukemia [2]; conclusion, when adequate dosage was administered): active against the disseminated iv implanted P388 leukemia model | antibacterial activity spectrum (a variety of bacteria): broad spectrum of antibacterial activity; also recorded: antimicrobial activity against a broad spectrum of bacteria
